Peptide text beside a SMILES is read from it.
Tests used:
[1] = target: Neuronal acetylcholine receptor; alpha3/beta4 (Rattus norvegicus) (UniProt P04757+P12392); experiment: Potency index, ratio of [T5A,P60]BuIA to test compound for rat alpha3beta4 nAChR expressed in Xenopus oocytes assessed as fold decrease in presence of acetylcholine by Voltage-clamp recording; type: cell-based; settings: Oocyte
[2] = target: Nicotinic acetylcholine receptor alpha6/alpha3/beta4 (Rattus norvegicus) (UniProt P04757+P12392+P43143); experiment: Potency index, ratio of [T5A,P60]BuIA to test compound for rat alpha6/alpha3beta4 nAChR expressed in Xenopus Oocytes assessed as fold increase in presence of acetylcholine by Voltage-clamp recording; type: cell-based; settings: Oocyte

In the case of CC(C)[C@H](NC(=O)[C@@H]1CCCN1C(=O)[C@H](CC(N)=O)NC(=O)[C@H](C)NC(=O)[C@H](CS)NC(=O)[C@H](CS)NC(=O)[C@@H](N)CCCNC(=N)N)C(=O)N[C@@H](CS)C(=O)N[C@@H](CC(N)=O)C(=O)NCC(=O)N[C@@H](CCCCN)C(=O)N[C@@H](Cc1cnc[nH]1)C(=O)N[C@@H](CS)C(N)=O (H-RCCANPVCNGKHC-NH2), the fold change (FC) [1] is reported as 10 and the fold change (FC) [2] is reported as 3.
